Assays:
Assay type in all cases: functional
Streptococcus pneumoniae [1] = assay: Antimicrobial activity against Streptococcus pneumoniae serotype 19F assessed as percent susceptible isolates by broth microdilution method
Streptococcus pneumoniae [2] = assay: Antimicrobial activity against Streptococcus pneumoniae serotype 6C by broth microdilution method
Streptococcus pneumoniae [3] = assay: Antimicrobial activity against multiple drug resistant Streptococcus pneumoniae serotype 19F assessed as percent susceptible isolates by broth microdilution method
Streptococcus pneumoniae [4] = assay: Antimicrobial activity against Streptococcus pneumoniae serotype 23B assessed as percent susceptible isolates by broth microdilution method
Streptococcus pneumoniae [5] = assay: Antimicrobial activity against multiple drug resistant Streptococcus pneumoniae serotype 19A by broth microdilution method
Streptococcus pneumoniae [6] = assay: Antimicrobial activity against multiple drug resistant Streptococcus pneumoniae serotype 6B assessed as percent susceptible isolates by broth microdilution method
Streptococcus pneumoniae [7] = assay: Antimicrobial activity against multiple drug resistant Streptococcus pneumoniae serotype 6B by broth microdilution method
Streptococcus pneumoniae [8] = assay: Antimicrobial activity against Streptococcus pneumoniae serotype 7F assessed as percent susceptible isolates by broth microdilution method
Streptococcus pneumoniae [9] = assay: Antimicrobial activity against Streptococcus pneumoniae serotype 35B assessed as percent susceptible isolates by broth microdilution method
Streptococcus pneumoniae [10] = assay: Antimicrobial activity against Streptococcus pneumoniae serotype 11A assessed as percent susceptible isolates by broth microdilution method
Streptococcus pneumoniae [11] = assay: Antimicrobial activity against Streptococcus pneumoniae serotype 3 assessed as percent susceptible isolates by broth microdilution method
Streptococcus pneumoniae [12] = assay: Antimicrobial activity against Streptococcus pneumoniae serotype 23A assessed as percent susceptible isolates by broth microdilution method
Streptococcus pneumoniae [13] = assay: Antimicrobial activity against Streptococcus pneumoniae serotype 15A assessed as percent susceptible isolates by broth microdilution method
Streptococcus pneumoniae [14] = assay: Antimicrobial activity against Streptococcus pneumoniae serotype 35B by broth microdilution method
Streptococcus pneumoniae [15] = assay: Antimicrobial activity against Streptococcus pneumoniae serotype 7F by broth microdilution method
Streptococcus pneumoniae [16] = assay: Antimicrobial activity against Streptococcus pneumoniae serotype 19A by broth microdilution method
Streptococcus pneumoniae [17] = assay: Antimicrobial activity against multiple drug resistant Streptococcus pneumoniae serotype 19F by broth microdilution method
Streptococcus pneumoniae [18] = assay: Antimicrobial activity against Streptococcus pneumoniae serotype 19A assessed as percent susceptible isolates by broth microdilution method
Streptococcus pneumoniae [19] = assay: Antimicrobial activity against multiple drug resistant Streptococcus pneumoniae serotype 19A assessed as percent susceptible isolates by broth microdilution method
Streptococcus pneumoniae [20] = assay: Antimicrobial activity against Streptococcus pneumoniae serotype 22F assessed as percent susceptible isolates by broth microdilution method
Streptococcus pneumoniae [21] = assay: Antimicrobial activity against Streptococcus pneumoniae serotype 3 by broth microdilution method
Streptococcus pneumoniae [22] = assay: Antimicrobial activity against Streptococcus pneumoniae serotype 11A by broth microdilution method
Streptococcus pneumoniae [23] = assay: Antimicrobial activity against Streptococcus pneumoniae serotype 6C assessed as percent susceptible isolates by broth microdilution method

SMILES: CN[C@H](CC(C)C)C(=O)N[C@H]1C(=O)N[C@@H](CC(N)=O)C(=O)N[C@H]2C(=O)N[C@H]3C(=O)N[C@H](C(=O)N[C@H](C(=O)O)c4cc(O)cc(O)c4-c4cc3ccc4O)[C@H](O)c3ccc(c(Cl)c3)Oc3cc2cc(c3O[C@@H]2O[C@H](CO)[C@@H](O)[C@H](O)[C@H]2O[C@H]2C[C@](C)(N)[C@H](O)[C@H](C)O2)Oc2ccc(cc2Cl)[C@H]1O [VANCOMYCIN]
- Activity (Streptococcus pneumoniae [1]): 100%
- MIC (Streptococcus pneumoniae [2]): ≤ 1 µg/mL
- MIC50 (Streptococcus pneumoniae [2]): ≤ 1 µg/mL
- MIC90 (Streptococcus pneumoniae [2]): ≤ 1 µg/mL
- Activity (Streptococcus pneumoniae [3]): 100%
- Activity (Streptococcus pneumoniae [4]): 100%
- MIC (Streptococcus pneumoniae [5]): ≤ 1 µg/mL
- MIC50 (Streptococcus pneumoniae [5]): ≤ 1 µg/mL
- MIC90 (Streptococcus pneumoniae [5]): ≤ 1 µg/mL
- Activity (Streptococcus pneumoniae [6]): 100%
- MIC (Streptococcus pneumoniae [7]): ≤ 1 µg/mL
- MIC50 (Streptococcus pneumoniae [7]): ≤ 1 µg/mL
- MIC90 (Streptococcus pneumoniae [7]): ≤ 1 µg/mL
- Activity (Streptococcus pneumoniae [8]): 100%
- Activity (Streptococcus pneumoniae [9]): 100%
- Activity (Streptococcus pneumoniae [10]): 100%
- Activity (Streptococcus pneumoniae [11]): 100%
- Activity (Streptococcus pneumoniae [12]): 100%
- Activity (Streptococcus pneumoniae [13]): 100%
- MIC (Streptococcus pneumoniae [14]): ≤ 1 µg/mL
- MIC50 (Streptococcus pneumoniae [14]): ≤ 1 µg/mL
- MIC90 (Streptococcus pneumoniae [14]): ≤ 1 µg/mL
- MIC (Streptococcus pneumoniae [15]): ≤ 1 µg/mL
- MIC50 (Streptococcus pneumoniae [15]): ≤ 1 µg/mL
- MIC90 (Streptococcus pneumoniae [15]): ≤ 1 µg/mL
- MIC (Streptococcus pneumoniae [16]): ≤ 1 µg/mL
- MIC50 (Streptococcus pneumoniae [16]): ≤ 1 µg/mL
- MIC90 (Streptococcus pneumoniae [16]): ≤ 1 µg/mL
- MIC (Streptococcus pneumoniae [17]): ≤ 1 µg/mL
- MIC50 (Streptococcus pneumoniae [17]): ≤ 1 µg/mL
- MIC90 (Streptococcus pneumoniae [17]): ≤ 1 µg/mL
- Activity (Streptococcus pneumoniae [18]): 100%
- Activity (Streptococcus pneumoniae [19]): 100%
- Activity (Streptococcus pneumoniae [20]): 100%
- MIC (Streptococcus pneumoniae [21]): ≤ 1 µg/mL
- MIC50 (Streptococcus pneumoniae [21]): ≤ 1 µg/mL
- MIC90 (Streptococcus pneumoniae [21]): ≤ 1 µg/mL
- MIC (Streptococcus pneumoniae [22]): ≤ 1 µg/mL
- MIC50 (Streptococcus pneumoniae [22]): ≤ 1 µg/mL
- MIC90 (Streptococcus pneumoniae [22]): ≤ 1 µg/mL
- Activity (Streptococcus pneumoniae [23]): 100%
